Test results reported in patent US8361780B2, “Biological system and assay for identifying modulators of tubulin ligases” (University of Georgia Research Foundation, Inc., priority 2005, dated 2013).

Assays:
[1] = system: Tetrahymena; details: cited from earlier work
[2] = system: cell body microtubules of GFP-Ttll6Ap-overexpressing Tetrahymena cells; test: Stability of cell body microtubules against microtubule-destabilizing compounds, GFP-Ttll6Ap-overexpressing cells; type: cell-based, Tetrahymena thermophila; details: nocodazole 40 μM, oryzalin 10 μM, 30 min
Procedure: (§1) Immunofluorescence and electron microscopy. GFP-Ttll6Ap-expressing cells were grown in SPP with 0.5 to 2.5 μg of CdCl2/ml for 2 to 4 h. For GFP-Ttll6Ap localization, a 10-μl drop of cells was placed on a coverslip, followed by the addition of 20 μl of 2% paraformaldehyde in PHEM buffer (Schliwa and van Blerkom. 1981. J. Cell Biol. 90:222-235) and, after 20 s, the addition of 10 μl of 0.5% Triton X-100 in PHEM. The cells were subjected to immunofluorescence (Janke et al., 2005. Science 308:1758-1762) with the following primary antibodies: 12G10, an anti-α-tubulin monoclonal antibody (MAb) (Jerka-Dziadosz et al., 1995. Dev. Biol. 169:644-661) at 1:50; MAb ID5 (40), which in Tetrahymena is specific to polyglutamylated tubulin (Wloga et al., 2008. Eukaryot. Cell 7:1362-1372), at 1:50; poly(E) antipolyglutamic acid antibodies (1:100) (Shang et al., 2002. J. Cell Biol. 158:1195-1206); TAP952, an anti-monoglycylated tubulin MAb (1:5,000) (Bré et al., 1998. Mol. Biol. Cell 9:2655-2665; Callen et al., 1994. Biol. Cell 81:95-119); and 6-11 B-1, an anti-acetyl-K40 α-tubulin MAb (1:200) (LeDizet and Piperno. 1991.

[3] = system: cytoplasmic microtubules of wild-type Tetrahymena cells; test: Stability of cell body microtubules against microtubule-destabilizing compounds, wild-type cells; type: cell-based, Tetrahymena thermophila; details: nocodazole 40 μM, oryzalin 10 μM, 30 min
Procedure: as §1

[4] = system: wild-type Tetrahymena cells; test: Axoneme/cilium length in paclitaxel-treated wild-type cells (immunofluorescence); type: cell-based, Tetrahymena thermophila
Procedure: as §1, with “1991. Methods Enzymol. 196:264-274). The secondary goat antibodies were as follows: anti-mouse-FITC, anti-mouse-Cy3, anti-rabbit-Cy3, and anti-rabbit-Cy5 (Zymed) at 1:200 dilutions. Cells were viewed under either Leica TCS SP or Zeiss LSM 510 VIS/META confocal microscopes. […] Confocal images were recorded with a 0.8-μm distance between z-sections, and sets of two to four z-sections were merged. The lengths of the cilia were measured by using ImageJ 1.37. […]” for “1991.”
(§2) Immunofluorescence and Electron Microscopy of Tetrahymena. Immuno-fluorescence was done as previously described (Wloga et al., 2006. Mol. Biol. Cell 17, 2799-2810) and quantified using mixed mutant and WT cells (fed with India ink) imaged side by side. The average pixel intensity was determined for sections of axonemes from the base to below the tip using ImageJ. […] After washing, cells were dehydrated in an ethanol series, embedded in Epon, sectioned, and analyzed in a JEM 1210 electron microscope.

[5] = system: GFP-Ttll6Ap-overproducing Tetrahymena cells; test: Cilium length in paclitaxel-treated GFP-Ttll6Ap-overproducing cells (immunofluorescence); type: cell-based, Tetrahymena thermophila; details: 40 μM paclitaxel for 3 h
Procedure: as §1, with “1991. Methods Enzymol. 196:264-274). The secondary goat antibodies were as follows: anti-mouse-FITC, anti-mouse-Cy3, anti-rabbit-Cy3, and anti-rabbit-Cy5 (Zymed) at 1:200 dilutions. Cells were viewed under either Leica TCS SP or Zeiss LSM 510 VIS/META confocal microscopes. To measure the length of the cilia, the cells were labeled with MAb 12G10, [and, in some experiments, double labeled with poly(E) antibodies]. Confocal images were recorded with a 0.8-μm distance between z-sections, and sets of two to four z-sections were merged. The lengths of the cilia were measured by using ImageJ 1.37. For transmission electron microscopy (TEM), the cells were prepared as described previously (Jerka-Dziadosz et al., 2001. Protist 152:53-67).” for “1991.”

[6] = system: 3AB-KO Tetrahymena cells; test: Axoneme elongation by paclitaxel in 3AB-KO cells (immunofluorescence); type: cell-based, Tetrahymena thermophila; details: 25 μM paclitaxel for 4 hr
Procedure: Cultures. Tetrahymena thermophila cells were grown in SPP medium. To determine the growth rate, cells were diluted to 10^4 cells/ml and grown in 10 ml of SPP in 150 ml flasks. In some experiments, paclitaxel (LC Laboratories, Woburn, Mass.) was added to the SPP medium. WT in Kalkutta and Tupfel longfin (commonly known as “WIK” and “TL”, respectively) zebrafish were raised at 28° C. at 14 hr light/10 hr dark cycle. The embryos were cultured in egg water at 28° C.
as §2, with “ImageJ. TEM was performed as previously described (Jerka-Dziadosz et al., 2001. Protist 152, 53-67). For immunoelectron TEM, cells were fixed as for immunofluorescence, reacted with anti-GFP antibodies (1:1000; Abcam) in 3% bovine serum albumin (BSA) in the PHEM buffer with 0.1% Tween-20 for 2 hr, followed by anti-rabbit IgG-10 nm gold antibodies (GE Healthcare) at 1:60 in 3% BSA in PBS for 1.5 hr.” for “ImageJ.”

[7] = system: zebrafish embryos; test: Heart position in zebrafish embryos, in situ hybridization; type: in vivo
From the text: (§3) MO Knockdowns in Zebrafish Embryos. TTLL3-ATG MO (5′ […] 3′; SEQ ID NO:129) and TTLL3-SP MO (5′ […] 3; SEQ ID NO:130) were obtained from Open Biosystems (Huntsville, AL). TTLL3-ATG targets the translation initiation site of ttll3 mRNA. TTLL3-SP is predicted to prevent splicing of exon 11 and cause a frame shift in exon 12. This would eliminate the coding sequence downstream of exon 10, which includes a conserved catalytic domain-encoding region. To evaluate the effect of TTLL3-SP on ttll3 mRNA, total RNA was isolated with TRIzol reagent (Invitrogen, Inc., Carlsbad, Calif.) from embryos at 7 hpf: 50 uninjected control embryos, 40 embryos injected with 3 ng TTLL3-SP MO, or 30 embryos injected with 5 ng TTLL3-SP MO. Total RNA ([…]) was used as a template for cDNA synthesis with random hexamers and oligo-dT primers and the iScript TM cDNA synthesis kit (Bio-Rad Laboratories, Hercules, Calif.). cDNA ([…]) was amplified with the following primers spanning exon 11: TTLL3-splice F, 5′-[…]-3′ (exon 10; SEQ ID NO:131); TTLL3-splice R, 5′-[…]-3′ (exon 12; SEQ ID NO:132). As expected, primers flanking exon 11 produced a shorter product in RT-PCR from embryos injected with TTLL3-SP than in controls (FIG. 50D). […] As a negative control, we injected 25 base MOs with a random base mixture at each position (Gene Tools, Inc., Philomath, Oreg.).
(§4) Microscopy of Zebrafish. For whole-mount, in situ hybridization, embryos were fixed as previously described (Hagos and Dougan, 2007), stored in 100% methanol at −20° C., and stained with spaw, lefty1, lefty2, and cmlc2 probes (Yelon, 2001). Embryos were photographed under differential interference contrast with a Zeiss Axioplan 2 microscope with Slidebook (Intelligent Imaging Innovations, Denver, Colo.). For immunofluorescence, the embryos were manually dechorionated and fixed with 0.5% Triton X-100 and 4% paraformaldehyde in PBT (0.1% Tween-20 in PBS) at 4° C. overnight. After washing with PBT, embryos were dehydrated in methanol/PBT series and incubated overnight in 100% methanol at −20° C. After rehydration, embryos were blocked for 1-2 hr in 2% BSA, 0.5% normal goat serum,l%DMSO, 0.5% Triton X-100 in PBS, and incubated overnight at 4° C. with one of the following antibodies: 6-11 B-1 (1:1000); TAP952 (1:2000); AXO49 (1:2000); and GT335 (1:1000); polyE (1:500). After washing 3×10 min with 0.5% Triton X-100 in PBS, embryos were incubated overnight at 4° C. in anti-mouse-IgG-FITC or anti-rabbit-IgG-Cy3 (1:500; Zymed), washed (3×10 min), mounted in 100 mg/ml of DABCO (Sigma-Aldrich) in PBS, and examined on a Leica TCS SP confocal microscope.

[8] = system: zebrafish embryos; test: Tubulin monoglycylation in cilia of zebrafish embryos (TAP952 immunofluorescence); type: in vivo
From the text: as §3, §4

[9] = system: zebrafish embryos; test: Heart position in zebrafish embryos, scoring live embryos; type: in vivo
From the text: as §3

[10] = system: zebrafish embryos; test: Expression pattern of lefty2 in zebrafish embryos (in situ hybridization); type: in vivo
From the text: as §3, §4

[11] = system: zebrafish embryos; test: Morphology of zebrafish morphant embryos; details: in vivo
From the text: as §3

[12] = system: zebrafish embryos; test: Expression pattern of southpaw in zebrafish embryos (in situ hybridization); type: in vivo
From the text: as §3, §4

[13] = GFP-Ttll6Ap-overexpressing cells

C[S+](C)[O-] [DMSO]
concentration tolerated well [1]: up to 2.5%

COC(=O)Nc1nc2ccc(C(=O)c3cccs3)cc2[nH]1 [nocodazole]
effect on cell body microtubules [2]: retained abundant cell body microtubules
effect on cytoplasmic microtubules [3]: rapid depolymerization of cytoplasmic microtubules

CC(=O)O[C@H]1C(=O)[C@@]2(C)[C@H]([C@H](OC(=O)c3ccccc3)[C@]3(O)C[C@H](OC(=O)[C@H](O)[C@@H](NC(=O)c4ccccc4)c4ccccc4)C(C)=C1C3(C)C)[C@]1(OC(C)=O)CO[C@@H]1C[C@@H]2O [paclitaxel]
effect on axonemes ([4]; 25 μM paclitaxel for 4 hr): remarkable elongation of axonemes
increase of the average axoneme length ([4]; 40 μM paclitaxel for 3 h): 20%
axoneme length after treatment ([4]; 40 μM paclitaxel for 3 h, n=173): 6.05±1.12 μm
elongation of preexisting cilia [5, 13]: 22%
length of preexisting cilia, paclitaxel treated [5, 13]: 6.39±0.82 μm
length of assembling cilia, paclitaxel treated ([5]; GFP-Ttll6Ap-overproducing cells): 2.7±0.6 μm
change of length of assembling cilia ([5]; GFP-Ttll6Ap-overproducing cells, vs no drug): 44%
elongation of axonemes [6]: not observed

TTLL3-ATG-MO: antisense morpholino 5′ GTGTTGGTGCATGTTTGAGTTAACC 3′; targets the translation initiation site of ttll3 mRNA (all phosphorodiamidate morpholino (PMO))
heart position left, number of embryos [7]: 21
heart position left, percent of embryos [7]: 50%
heart position middle, number of embryos [7]: 7
heart position middle, percent of embryos [7]: 16.7%
heart position right, number of embryos [7]: 14
heart position right, percent of embryos [7]: (33.3%)
levels of tubulin monoglycylation/glycylation in cilia ([8]; 72 hpf, TTLL3-ATG MO 1 ng, TTLL3-SP MO 3 ng): greatly reduced
morphants with TAP952 signal not detected in cilia of the distal part of pronephric duct ([8]; n=46): 98%
morphants with TAP952 signal not detected in cilia of the medial part of pronephric duct ([8]; n=46): 61%
morphants with TAP952 signal not detected in cilia of the spinal cord ([8]; n=46): 89%
heart position left, number of embryos [9]: 56
heart position left, percent of embryos [9]: 50%
heart position middle, number of embryos [9]: 33
heart position middle, percent of embryos [9]: 29.5%
heart position right, number of embryos [9]: 23
heart position right, percent of embryos [9]: (20.5%)
lefty2 expression: Bilatera or midline, number of embryos [10]: 5
lefty2 expression: Bilatera or midline, percent of embryos [10]: (11.9%)
lefty2 expression: No specific signal, number of embryos [10]: 8
lefty2 expression: No specific signal, percent of embryos [10]: (19%)
lefty2 expression: left, number of embryos [10]: 15
lefty2 expression: left, percent of embryos [10]: (35.7%)
lefty2 expression: right, number of embryos [10]: 14
lefty2 expression: right, percent of embryos [10]: (33.4%)
hydrocephalic morphants [11]: 10%
morphant embryos with curly tail [11]: 76%
southpaw expression: Bilatera or midline, number of embryos [12]: 34
southpaw expression: Bilatera or midline, percent of embryos [12]: (43.7%)
southpaw expression: No specific signal, number of embryos [12]: 19
southpaw expression: No specific signal, percent of embryos [12]: (24.3%)
southpaw expression: left, number of embryos [12]: 14
southpaw expression: left, percent of embryos [12]: (17.9%)
southpaw expression: right, number of embryos [12]: 11
southpaw expression: right, percent of embryos [12]: (14.1%)
